Assay results as given in US4939274A, “Hydroxybutenolide derivatives, production and use thereof” (Takeda Chemical Industries, Ltd., priority 1986, dated 1990).

Legend:
[1] = system: lipid peroxide formation in rat brain tissue homogenate; experiment: Activity to inhibit lipid peroxide formation in rat brain tissue homogenate (TBA method); assay type: biochemical; settings: 10^-5 M; 5% rat brain homogenate, 37° C., 1 hour; n=3, mean; vs. DMSO reference
Method: Male SD rats (12-week-old) were subjected to exsanguination under anesthesia with pentobarbital, then the brain was excised. The brain tissue was homogenized in a phosphate buffer (pH 7.4) to prepare a 5% homogenate. After incubation of the homogenate at 37° C. for 1 hour, the amount of lipid peroxides formed therein was determined by the thiobarbituric acid (TBA) method in accordance with the report of Ohkawa et al. on Analytical Biochemistry, 95, 351, (1979). The test drug was added to the 5% homogenate before incubation so as to make the final concentration be 10^-5 M The activity to inhibit the formation of lipid peroxide was compared with that of the reference group to which was added the solvent (DMSO), and shown by % inhibition.

[2] = system: mice; experiment: Acute toxicity in mice; assay type: in vivo; settings: oral, 300 and 1000 mg/kg
Method: Male Crj-ICR mice (4-week-old, 21 to 26 g) were used. The animals, divided into groups, each consisting of six mice, were administered orally with compounds (4-c, 4-h) at the dosages of 300 and 1000 mg/kg, respectively. Then, each group was housed in a cage and observed for 24 hours.
The test drugs were suspended in gum arabic and administered at a volume of 0.1 ml/10 g.

[3] = system: ventricular arrhythmia during coronary artery occlusion-reperfusion in rat hearts; experiment: Activity to inhibit occurrence of ventricular arrhythmia during coronary artery occlusion-reperfusion in rat hearts; assay type: in vivo; settings: 50 mg/kg, oral; for Ventricular fibrillation, Incidence (10 min.) / Ventricular tachycardia, Incidence (10 min.): 10 min. observation; for Ventricular fibrillation, Incidence (10 min.): control 4.1 ± 0.7; for Ventricular tachycardia, Incidence (10 min.): control 11.5 ± 5.0; for Ventricular tachycardia, Duration / Ventricular fibrillation, Duration: average ± SEM; for Ventricular tachycardia, Duration: control 26.5 ± 6.8; for Ventricular fibrillation, Duration: control 74.2 ± 30.8; for Exrasystole: control 11.0 ± 4.0; for Mortality: killed/tested animals, control 2/18
Description: Male SD rats (9- to 13-week old, 250 to 370 g) were used. The animals were subjected to thoractonomy under artificial respiration while anesthesia was maintained by administering pentobarbital. […] By recording standard limb lead II electrocardiograms, occurrence of ventricular arrhythmia was examined.
Incidences of ventricular fibrillation and ventricular tachycardia are shown by the percentage of the number of animals presenting the symptoms relative to the number of animals subjected to the test, and the duration of the symptoms was shown in average ±SEM by seconds. Extrasystole is shown by the number of systole/min., and the mortality is shown by the percentage of the number of killed animals relative to the number of test animals.

## CCCCCOc1ccc(C2=C(O)COC2=O)cc1 [Compound 4-a]
[1]
  Inhibition rate (lipid peroxide formation): 57.1%

## CCCCCCCOc1ccc(C2=C(O)COC2=O)cc1 [Compound 4-b]
[1]
  Inhibition rate (lipid peroxide formation): 100.0%

## CCCCCCCCCCOc1ccc(C2=C(O)C(C)OC2=O)cc1 (stereo not shown) [Compound 4-d]
[1]
  Inhibition rate (lipid peroxide formation): 100.0%

## CCCCCCCCCCOc1ccc(C2=C(O)C(c3ccccc3)OC2=O)cc1 (stereo not shown) [Compound 4-e]
[1]
  Inhibition rate (lipid peroxide formation): 100.0%

## CCCCCCCCCCCOc1ccc(C2=C(O)COC2=O)cc1 [Compound 4-f]
[1]
  Inhibition rate (lipid peroxide formation): 89.7%

## CCCCCCCCCCCOc1ccc(C2=C(O)C(c3ccccc3)OC2=O)cc1 (stereo not shown) [Compound 4-g, 2-(4-undecyloxyphenyl)-3-hydroxy-4-phenyl-2-buten-4-olide]
[1]
  Inhibition rate (lipid peroxide formation): 100.0%

## CCCCCCCCCCCCOc1ccc(C2=C(O)COC2=O)cc1 [Compound 4-h, 2-(4-dodecyloxyphenyl)-3-hydroxy-2-buten-4-olide]
[1]
  Inhibition rate (lipid peroxide formation): 100.0%
[2]
  recovery from sedation and ptosis: ≤ 3 h
[2]; six mice per group
  state of sedation and ptosis, animals affected: half number of the test animals

## CCCCCCCCCCCCOc1ccc(C2=C(O)C(C)OC2=O)cc1 (stereo not shown) [Compound 4-i]
[1]
  Inhibition rate (lipid peroxide formation): 100.0%

## CCCCCCCCCCCCCCOc1ccc(C2=C(O)COC2=O)cc1 [Compound 4-j]
[1]
  Inhibition rate (lipid peroxide formation): 100.0%

## CCCCCCCCCCCCCCCCCCOc1ccc(C2=C(O)COC2=O)cc1 [Compound 4-k]
[1]
  Inhibition rate (lipid peroxide formation): 80.1%

## O=C1O[C@H]([C@@H](O)CO)C(O)=C1O [Vitamin C, ascorbic acid]
[1]
  Inhibition rate (lipid peroxide formation): -71.6%
[3]
  effect on ventricular arrhythmia: no significant effect
  Ventricular fibrillation, Incidence (10 min.): 5.4 ± 0.8
  Ventricular tachycardia, Incidence (10 min.): 9.5 ± 1.8
  Ventricular tachycardia, Duration: 12.0 ± 2.9 s
  Ventricular fibrillation, Duration: 74.1 ± 36.0 s
  Exrasystole: 11.0 ± 0.8 times/min.
  Mortality: 1/12

## Cc1c(C)c2c(c(C)c1O)CC[C@@](C)(CCC[C@H](C)CCC[C@H](C)CCCC(C)C)O2 [Vitamin E, α-tocopherol]
[1]
  Inhibition rate (lipid peroxide formation): 44.9%
[3]
  effect on ventricular arrhythmia: no significant effect
  Ventricular fibrillation, Incidence (10 min.): 2.0 ± 0.7
  Ventricular tachycardia, Incidence (10 min.): 3.7 ± 1.5
  Ventricular tachycardia, Duration: 22.3 ± 9.7 s
  Ventricular fibrillation, Duration: 43.4 ± 36.0 s
  Exrasystole: 7.0 ± 4.1 times/min.
  Mortality: 1/10
